Experimental findings from patent publication US8629251B2, “Specific detection and quantification of phosphatidic acid using an Arabidopsis trigalactosyldiacylglycerol-4 (TGD4) protein” (Board of Trustees of Michigan State University, priority 2008, dated 2014) are described below.

Holding throughout (format): binding
Assay [1] concerns the target T1, Arabidopsis TGD2, DsRed-TGD2C WT fusion protein, residues 119-381, SEQ ID NO:107 (Arabidopsis thaliana, UniProt Q9LTR2).
T1 sequence (Q9LTR2 121-381): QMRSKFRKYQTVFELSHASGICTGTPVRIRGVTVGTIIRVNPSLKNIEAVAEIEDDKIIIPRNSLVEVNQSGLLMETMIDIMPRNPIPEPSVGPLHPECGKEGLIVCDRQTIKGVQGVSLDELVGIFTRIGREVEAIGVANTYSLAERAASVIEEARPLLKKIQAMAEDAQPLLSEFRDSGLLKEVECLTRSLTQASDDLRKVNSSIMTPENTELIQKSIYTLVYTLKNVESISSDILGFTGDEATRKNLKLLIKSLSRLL
Put plainly: Protein-lipid overlay assay, DsRed-TGD2C WT. The following applies: commercial phospholipid membrane strip. As for the experimental part: Membrane lipid strips were purchased from Echelon Biosciences (Salt Lake City, Utah). The strips were first blocked with 3% bovine serum albumin in TBST (10 mM Tris-HCl, pH 8.0, 150 mM NaCl, and 0.25% Tween-20) for two hours and incubated in 0.5 μg/mL DsRed-TGD2 fusion protein solution in the blocking buffer at 4° C. overnight. The strips were washed 10 min for 3 times with TBST the next day and soaked in 3% bovine serum albumin in TBST with a Penta-His mouse monoclonal antibody (Sigma-Aldrich, St. Louis, Mo.) at 1:2,000 dilution at 4° C. overnight. The strips were washed twice with TBST and soaked in 3% bovine serum albumin in TBST with horseradish peroxidase-conjugated anti mouse antibody (Bio-Rad, Hercules, Calif.) at 1:20,000 dilution for an hour at room temperature. Following washing with TBST for 1 hour, the protein was detected by using the chemiluminescent detection system (Sigma-Aldrich).

For assay [2], the target named is T2, Arabidopsis TGD4, TGD4N-DsRED-His (N-terminal fragment 1-286, SEQ ID NO:130) (Arabidopsis thaliana, UniProt Q9M903).
T2 construct: made in house; host or cells: Escherichia coli BL21 (DE3)
T2 sequence (Q9M903 1-286): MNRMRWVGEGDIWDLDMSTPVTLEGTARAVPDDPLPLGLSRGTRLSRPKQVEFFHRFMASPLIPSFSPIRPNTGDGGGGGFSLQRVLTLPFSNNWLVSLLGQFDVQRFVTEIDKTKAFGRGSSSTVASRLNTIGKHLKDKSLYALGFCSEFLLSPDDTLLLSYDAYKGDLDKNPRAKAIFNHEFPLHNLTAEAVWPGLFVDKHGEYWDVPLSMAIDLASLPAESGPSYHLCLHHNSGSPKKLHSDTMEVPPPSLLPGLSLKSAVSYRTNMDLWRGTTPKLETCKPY
In words: Liposome association assay, TGD4N-DsRED-His. To be noted: dioleoyl-PtdOH/dioleoyl-PtdCho liposomes, 0 to 80% PtdOH, FIG. 19B. As for the experimental part: Liposome Association Assay:
The liposome association assay was adapted from (Awai et al., 2006, Lu and Benning, 2009) with minor modifications. Dioleoyl-PtdCho and PtdOH with different acyl chain lengths and desaturation levels were used for making liposomes. In other liposomes 1-palmitoyl-2-(12-((7-nitro-2-1,3-benzoxadiazol-4-yl)amino)dodecanoyl)-sn-glycero-3-phosphate (NBD-PtdOH; Avanti, Alabaster, Ala.) was used. The lipids were mixed at indicated ratios to give a total lipid amount of 250 μg. The lipids were dried under a stream of nitrogen, resuspended in 0.5 ml TBS buffer with 0.2 M choline chloride and hydrated at 37° C. for 1 hour followed by vigorous vortexing for 2 minutes. The resulting multi-lamellar vesicles were centrifuged at 13,000×g for 10 minutes and then washed once with TBS buffer containing 0.2 M choline chloride. The liposomes were resuspended into 100 μl TBS buffer with 0.2 M choline chloride and incubated with 2 μg purified DsRED-TGD4-His protein and its derivatives. The protein liposome mixture was incubated on ice for 30 minutes followed by centrifugation at 13,000×g for 10 minutes and two washes with 500 μl TBS containing 0.2 M choline chloride. The resulting protein-liposome pellet was resuspended in 20 μl 2× Laemmli buffer (Laemmli, 1970) and processed by SDS-PAGE (Shapiro and Maizel, 1969).

The target of assay [3] is T3, Arabidopsis TGD2, DsRed-TGD2C T5 (residues 119-300, SEQ ID NO:28) (Arabidopsis thaliana, UniProt Q9LTR2).
T3 sequence (Q9LTR2 119-300): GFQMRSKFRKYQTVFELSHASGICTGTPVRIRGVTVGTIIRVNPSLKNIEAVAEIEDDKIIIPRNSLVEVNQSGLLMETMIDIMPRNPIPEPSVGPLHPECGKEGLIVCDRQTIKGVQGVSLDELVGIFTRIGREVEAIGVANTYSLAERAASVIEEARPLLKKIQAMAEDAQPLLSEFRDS
In words: Liposome-association assay, TGD2C T5 (119-300). The following applies: FIG. 3C. As to the method:
The liposome association assay was performed as previously reported. (31). Briefly, lipids (dioleoyl-phosphatidylcholine, DOPC or dioleoyl-PA, DOPA) were incubated in TBS (50 mM Tris-HCl, pH 7; 0.1 M NaCl) at 37° C. for an hour followed by vigorous vortexing for 5 min. The liposomes were precipitated at 20,000 g and washed twice with ice-cold TBS.
Liposomes (200 μg) were mixed with purified DsRed-TGD2 fusion protein and TBS to make a final 100 μL solution. The mixture was incubated at 30° C. for 30 min and washed twice with ice-cold TBS by centrifugation at 20,000 g at 4° C. The liposome pellet mixed with sample buffer was analyzed by SDS-PAGE (28). Immuno-detection of the His-tagged protein was accomplished using the above mentioned Penta-His antibody at 1:15,000 and the anti mouse antibody at 1:75,000 dilution.
The protein band was visualized by chemiluminescent detection kit from Sigma. The autoradiography film was scanned, distinct protein bands were quantified using computer software Multi Gauge V3.0 (Fujifilm USA, Valhalla, N.Y.) and resulted data were plotted and analyzed by OriginPro8 (Origin lab corporation, Northampton, Mass.).

For `CCCCCCCC/C=C\CCCCCCCC(=O)OC[C@H](COP(=O)(O)O)OC(=O)CCCCCCC/C=C\CCCCCCCC` [PA, phosphatidic acid], the “binding to lipids on membrane strip” value in assay [1] is “shows specificity for PA over other lipids”. Moreover, the PtdOH binding affinity entry in assay [2] is given as “comparable to the full-length protein DsRED-TGD4-His”. The PA binding entry in assay [3] is “strong binding”.
